Data from US8536187B2 (Gilead Sciences, Inc., priority 2008, dated 2013).
pEC50: −log10 of the molar value.

How the values were obtained:
[1] = CC50 assay (CellTiter-Glo) in Huh-7 HCV replicon cells; type: cell-based; details: human, Table 2, 3 days incubation
Procedure, shortened: (§1)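 Huh-7 cells carrying HCV replicon (6000/well) incubated with serially diluted compound, 0.5% DMSO final, 3 days at 37° C, 5% CO2. EC50 from luciferase luminescence after 30 min lysis/substrate at room temperature; CC50 from CellTiter-Glo luminescence after 10 min at room temperature.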

[2] = test system: HCV replicon in human hepatoma Huh-7 cell line; test: Anti-HCV replicon assay, EC50 (luciferase luminescence); type: cell-based; details: Hepatitis C virus, Huh-7, 72 h
Procedure, shortened: as §1

Row | Compound | CC50 at 3 days [1] | pEC50 [2]
1 | COc1ccc(-c2ccc3nc(NC(C)c4ccc(-n5cncn5)cc4)nc(NC4(C(F)(F)F)CC4)c3n2)cc1S(C)(=O)=O (stereo not drawn) [Example 97, N^2-(1-(4-(1H-1,2,4-triazol-1-yl)phenyl)ethyl)-6-(4-methoxy-3-(methylsulfonyl)phenyl)-N^4-(1-(trifluoromethyl)cyclopropyl)pyrido[3,2-d] pyrimidine-2,4-diamine] | > 10 µM | > 7.00
2 | N#Cc1cc(F)ccc1-c1ccc2nc(NCc3cccc(S(N)(=O)=O)c3)nc(NC3(C(F)(F)F)CC3)c2n1 [Example 98, 3-((6-(2-cyano-4-fluorophenyl)-4-(1-(trifluoromethyl)cyclopropyl-amino)pyrido[3,2-d]pyrimidin-2-ylamino)methyl)benzene-sulfonamide] | 1 to 10 µM | > 7.00
3 | N#Cc1cc(F)ccc1-c1ccc2nc(NCc3cc(C(F)(F)F)cc(S(N)(=O)=O)c3)nc(NC3(C(F)(F)F)CC3)c2n1 [Example 99, 3-((6-(2-cyano-4-fluorophenyl)-4-(1-(trifluoromethyl)cyclopropyl-amino)pyrido[3,2-d]pyrimidin-2-ylamino)methyl)-5-(trifluoro-methyl)benzenesulfonamide] | 1 to 10 µM | > 7.00
4 | N#Cc1cc(F)ccc1-c1ccc2nc(NCc3cc(Cl)cc(S(N)(=O)=O)c3)nc(NC3(C(F)(F)F)CC3)c2n1 [Example 100, 3-chloro-5-((6-(2-cyano-4-fluorophenyl)-4-(1-(trifluoromethyl)cyclopropyl-amino)pyrido[3,2-d]pyrimidin-2-ylamino)methyl)benzene-sulfonamide] | 1 to 10 µM | > 7.00
5 | CS(=O)(=O)c1cccc(CNc2nc(NC3(C(F)(F)F)CC3)c3nc(-c4ccc(F)cc4C#N)ccc3n2)c1 [Example 104, 2-(2-(3-(methylsulfonyl)benzylamino)-4-(1-(trifluoromethyl)cyclopropyl-amino)pyrido[3,2-d]pyrimidin-6-yl)-5-fluorobenzonitrile] | > 10 µM | 6.60 to 7.00
6 | COc1ccc(-c2ccc3nc(NCc4cccc(F)c4)nc(NC4(C(F)(F)F)CC4)c3n2)cc1S(C)(=O)=O [Example 105, N^2-(3-fluorobenzyl)-6-(4-methoxy-3-(methylsulfonyl)phenyl)-N^4-(1-(trifluoromethyl)cyclopropyl)pyrido[3,2-d] pyrimidine-2,4-diamine] | > 10 µM | > 7.00
7 | NS(=O)(=O)c1cc(CNc2nc(NC3(C(F)(F)F)CC3)c3nc(C#CC4CC4)ccc3n2)cc(C(F)(F)F)c1 [Example 106, 3-((6-(2-cyclopropylethynyl)-4-(1-(trifluoromethyl)cyclo-propylamino)pyrido[3,2-d]pyrimidin-2-ylamino)methyl)-5-(trifluoromethyl)benzene-sulfonamide] | > 10 µM | > 7.00
8 | CS(=O)(=O)Nc1cc(F)cc(CNc2nc(NC3(C(F)(F)F)CC3)c3nc(-c4ccc(F)cc4)ccc3n2)c1 [Example 107, N-(3-fluoro-5-((6-(4-fluorophenyl)-4-(1-(trifluoromethyl)cyclopropyl-amino)pyrido[3,2-d]pyrimidin-2-ylamino)methyl)phenyl)methane-sulfonamide] | > 10 µM | 5.70 to 6.60
9 | Cc1cc(S(N)(=O)=O)ccc1[C@H](C)Nc1nc(NC2(C(F)(F)F)CC2)c2nc(-c3ccc(F)cc3)ccc2n1 [Example 108, (S)-4-(1-(6-(4-fluorophenyl)-4-(1-(trifluoromethyl)cyclopropyl-amino)pyrido[3,2-d]pyrimidin-2-ylamino)ethyl)-3-methylbenzene-sulfonamide] | > 10 µM | 5.70 to 6.60
10 | CS(=O)(=O)c1cccc(CNc2nc(NC3(C(F)(F)F)CC3)c3nc(-c4ccc(N5CCNC5=O)cc4)ccc3n2)c1 [Example 111, 1-(4-(2-(3-(methylsulfonyl)benzylamino)-4-(1-(trifluoromethyl)cyclopropyl-amino)pyrido[3,2-d]pyrimidin-6-yl)phenyl)imidazolidin-2-one] | 1 to 10 µM | > 7.00
11 | Nc1ccc(-c2ccc3nc(NCc4ccc(-n5cncn5)cc4)nc(NC4(C(F)(F)F)CC4)c3n2)cn1 [Example 112, N^2-(4-(1H-1,2,4-triazol-1-yl)benzyl)-6-(6-aminopyridin-3-yl)-N^4-(1-(trifluoromethyl)cyclopropyl)pyrido[3,2-d] pyrimidine-2,4-diamine] | 1 to 10 µM | > 7.00
12 | COc1ccc(-c2ccc3nc(NCc4cccc(C(F)(F)F)c4)nc(NC4(C(F)(F)F)CC4)c3n2)cc1S(C)(=O)=O [Example 113, N^2-(3-(trifluoromethyl)benzyl)-6-(4-methoxy-3-(methylsulfonyl)phenyl)-N^4-(1-(trifluoromethyl)cyclopropyl)pyrido[3,2-d] pyrimidine-2,4-diamine] | > 10 µM | 6.60 to 7.00
13 | CC(Cn1cncn1)Nc1nc(NC2(C(F)(F)F)CC2)c2nc(-c3ccc(NC4CC4)nc3)ccc2n1 (stereo not drawn) [Example 114, N^2-(1-(1H-1,2,4-triazol-1-yl)propan-2-yl)-6-(6-(cyclopropylamino)pyridin-3-yl)-N^4-(1-(trifluoromethyl)cyclopropyl)pyrido[3,2-d] pyrimidine-2,4-diamine] | > 10 µM | > 7.00
14 | NS(=O)(=O)c1cc(F)cc(CNc2nc(NC3(C(F)(F)F)CC3)c3nc(-c4ccc(F)cc4)ccc3n2)c1 [Example 115, 3-fluoro-5-((6-(4-fluorophenyl)-4-(1-(trifluoromethyl)cyclopropyl-amino)pyrido[3,2-d]pyrimidin-2-ylamino)methyl)benzene-sulfonamide] | 1 to 10 µM | > 7.00
15 | NS(=O)(=O)c1cccc(CNc2nc(NC3(C(F)(F)F)CC3)c3nc(-c4ccc(F)cc4)ccc3n2)c1 [Example 116, 3-((6-(4-fluorophenyl)-4-(1-(trifluoromethyl)cyclopropyl-amino)pyrido[3,2-d]pyrimidin-2-ylamino)methyl)benzene-sulfonamide] | > 10 µM | > 7.00
16 | Cc1cc(S(N)(=O)=O)ccc1[C@@H](C)Nc1nc(NC2(C(F)(F)F)CC2)c2nc(-c3ccc(F)cc3)ccc2n1 [Example 117, (R)-4-(1-(6-(4-fluorophenyl)-4-(1-(trifluoromethyl)cyclopropyl-amino)pyrido[3,2-d]pyrimidin-2-ylamino)ethyl)-3-methylbenzene-sulfonamide] | > 10 µM | > 7.00
17 | NS(=O)(=O)c1cc(CNc2nc(NC3(C(F)(F)F)CC3)c3nc(-c4ccc(F)cc4)ccc3n2)ccc1C(F)(F)F [Example 118, 5-((6-(4-fluorophenyl)-4-(1-(trifluoromethyl)cyclopropyl-amino)pyrido[3,2-d]pyrimidin-2-ylamino)methyl)-2-(trifluoro-methyl)benzenesulfonamide] | > 10 µM | 5.70 to 6.60
18 | C[C@@H](Nc1nc(NC2(C(F)(F)F)CC2)c2nc(-c3ccc(F)cc3)ccc2n1)c1ccc(S(N)(=O)=O)c(C(F)(F)F)c1 [Example 119, (R)-4-(1-(6-(4-fluorophenyl)-4-(1-(trifluoromethyl)cyclo-propylamino)pyrido[3,2-d]pyrimidin-2-ylamino)ethyl)-2-(trifluoromethyl)benzene-sulfonamide] | > 10 µM | 5.70 to 6.60
